Laboratory results taken from patent publication EP4647082A1, “PHARMACEUTICAL COMPOSITION COMPRISING A CGRP RECEPTOR ANTAGONIST FOR THE TREATMENT OF ACUTE MIGRAINE” (NUVIE BIO, Inc., priority 2024, dated 2025).
Read-outs that look alike come from different tables or passages of the source. Bridge positions count the residues as written; N and C are the ends. Square brackets hold non-standard residues; d marks the D form. Peptide text beside a SMILES is read from it. * marks the point of attachment. Phe(2-CONH2) = NC(=O)c1ccccc1C[C@H](N)C(=O)O; Orn(iPr) = CC(C)NCCC[C@H](N)C(=O)O; Oxazole2carbonyl = O=C(c1ncco1)*; 3Pal = N[C@@H](Cc1cccnc1)C(=O)O

Test: Phase I first-in-human study, pharmacokinetics after single ascending subcutaneous doses in healthy volunteers
Format: in vivo
Settings: for AUC(0-inf) / AUC(0-t) / CL/F / Cmax / Tmax / half-life / level at 1 h / level at 2 h / level at 3 h / level at 0.08 h / level at 0.17 h / level at 0.25 h / level at 0.33 h / level at 0.5 h / level at 0.75 h / level at 4 h / level at 6 h / level at 8 h: human, plasma, mean; for level at 1 h: nominal time 1 h; for level at 1 h / level at 2 h / level at 3 h / level at 0.08 h / level at 0.17 h / level at 0.25 h / level at 0.33 h / level at 0.5 h / level at 0.75 h / level at 4 h / level at 6 h / level at 8 h: read-out: Plasma Concentration AXN-001; for level at 2 h: nominal time 2 h; for level at 3 h: nominal time 3 h; for level at 0.08 h: nominal time 0.08 h; for level at 0.17 h: nominal time 0.17 h; for level at 0.25 h: nominal time 0.25 h; for level at 0.33 h: nominal time 0.33 h; for level at 0.5 h: nominal time 0.50 h; for level at 0.75 h: nominal time 0.75 h; for level at 4 h: nominal time 4 h; for level at 6 h: nominal time 6 h; for level at 8 h: nominal time 8 h
Procedure: For Phase I clinical studies, the 32 mg/mL pharmaceutical composition was dosed subcutaneously. The Phase I clinical trial was a randomised, double-blind, placebo-controlled, first-in-human study of the safety, tolerability and pharmacokinetics of AXN-001 in healthy volunteers under Protocol No. AXN-001-01 .
The pharmacokinetic objective of the clinical trial was to provide pharmacokinetic analysis of AXN-001 following single ascending subcutaneous doses of AXN-001. The study design included the following Cohorts: • Cohort 1: Dose 1 mg (2 mg/mL formulation); • Cohort 2: Dose 2 mg (4 mg/mL formulation); • Cohort 3: Dose 4 mg (8 mg/mL formulation); • Cohort 4: Dose 8 mg (16 mg/mL formulation); • Cohort 5: Dose 16 mg (32 mg/mL formulation).
Participants were administered a single dose (0.5 mL) of AXN-001 or placebo via subcutaneous (SC) injection into the abdomen. Blood samples were collected at specified time points for pharmacokinetic analysis (5,10,15,20,30,45,60 minutes; 2,3,4,6,8,12,24 hours). Individual plasma concentrations of ANX-001 were determined and used for analyses.
Pharmacokinetic (PK) parameters of AXN-001 were determined using Phoenix WinNonlin version 8.3. All concentrations below the limit of quantification (BLQ) were set to zero for the purpose of the PK analysis. All AUC determinations were made using linear trapezoidal method. The following parameters were determined: Cmax Maximum observed concentration. as read directly from the observed data. Tmax Time to maximum concentration T10nM Time to 10 nM T30nM Time to 30 nM T100nM Time to 100 nM AUC0-t Area under the concentration-time curve from time zero to the time of the last measurable concentration, calculated using linear trapezoidal rule AUC0-inf Area under the concentration-time curve from time zero to infinity, calculated using linear trapezoidal rule %AUCextrap The portion of AUC determined by extrapolation t1/2 Apparent terminal elimination half-life CL/F or CL Total apparent body clearance Vz/F or Vz Apparent volume of distribution λz Terminal elimination rate constant

For `CC(C)NCCC[C@@H]1NC(=O)[C@@H](NC(=O)[C@H](Cc2ccccc2C(N)=O)NC(=O)[C@H](NC(=O)c2ncco2)C(C)C)CSSC[C@@H](C(=O)N[C@@H](Cc2cccnc2)C(N)=O)NC(=O)[C@H](Cc2ccccc2)NC(=O)[C@@H]2CCCN2C(=O)CNC(=O)[C@H](C(C)C)NC(=O)[C@H](CC(=O)O)NC1=O` [AXN-001, Oxazole-2-carbonyl-D-Val-Phe(2-Cbm)-c(Cys-Orn (iPr)-Asp-Val-Gly-Pro-Phe-Cys)-3Pal-NH2] (Oxazole2carbonyl-[dV][Phe(2-CONH2)]C[Orn(iPr)]DVGPFC[3Pal]-NH2; disulfide 3-10), the “subjects who achieved plasma concentrations of 30nM” value (1 mg cohort) was 1 of 6, the “subjects who achieved plasma concentrations of 30nM” value (2 mg cohort) was 5 of 6 and the “subjects who achieved 100nM plasma concentrations” value (4 mg cohort) was 2/5. The “subjects who achieved plasma concentrations of 30nM” value (4, 8, and 16 mg cohort) was “All subjects”, the “subjects who achieved 100nM plasma concentrations” value (8 and 16 mg cohorts) was “All subjects” and the “time to achieve plasma concentrations of 10nM AXN-001” value (all subjects at all doses (1-16 mg SC)) was “less than 15 minutes”. It also gave an AUC(0-inf) (single SC dose 1 mg) of 101 ng·h/mL, an AUC(0-t) (single SC dose 1 mg) of 96.1 ng·h/mL and a CL/F (single SC dose 1 mg) of 167 mL/min. The Cmax (single SC dose 1 mg) was 39.5 ng/mL, the Tmax (single SC dose 1 mg) was 0.792 h and the half-life (single SC dose 1 mg) was 1.31 h. It also gave a level at 1 h (single SC dose 1 mg) of 35.1 ng/mL, a level at 2 h (single SC dose 1 mg) of 22.8 ng/mL and a level at 3 h (single SC dose 1 mg) of 13.7 ng/mL. For the same compound, the AUC(0-inf) (single SC dose 2 mg) was 167 ng·h/mL, the AUC(0-t) (single SC dose 2 mg) was 159 ng·h/mL and the CL/F (single SC dose 2 mg) was 210 mL/min. The Cmax (single SC dose 2 mg) was 65 ng/mL, the Tmax (single SC dose 2 mg) was 0.792 h and the half-life (single SC dose 2 mg) was 1.35 h. The level at 0.08 h (single SC dose 2 mg) was 11.3 ng/mL, the level at 0.17 h (single SC dose 2 mg) was 21.6 ng/mL and the level at 0.25 h (single SC dose 2 mg) was 31.5 ng/mL. For the same compound, the level at 0.33 h (single SC dose 2 mg) was 40.4 ng/mL, the level at 0.5 h (single SC dose 2 mg) was 55.7 ng/mL and the level at 0.75 h (single SC dose 2 mg) was 62.6 ng/mL. It also gave a level at 1 h (single SC dose 2 mg) of 60.2 ng/mL, a level at 2 h (single SC dose 2 mg) of 38.1 ng/mL and a level at 3 h (single SC dose 2 mg) of 21.3 ng/mL. For the same compound, the level at 4 h (single SC dose 2 mg) was 11.4 ng/mL, the level at 6 h (single SC dose 2 mg) was 4.79 ng/mL and the level at 8 h (single SC dose 2 mg) was 0.713 ng/mL. For the same compound, the AUC(0-inf) (single SC dose 4 mg) was 343 ng·h/mL, the AUC(0-t) (single SC dose 4 mg) was 337 ng·h/mL and the CL/F (single SC dose 4 mg) was 197 mL/min. It also gave a Cmax (single SC dose 4 mg) of 133 ng/mL, a Tmax (single SC dose 4 mg) of 0.7 h and a half-life (single SC dose 4 mg) of 1.36 h. It also gave a level at 0.08 h (single SC dose 4 mg) of 9.6 ng/mL, a level at 0.17 h (single SC dose 4 mg) of 35.3 ng/mL and a level at 0.25 h (single SC dose 4 mg) of 71.4 ng/mL. The level at 0.33 h (single SC dose 4 mg) was 87.8 ng/mL, the level at 0.5 h (single SC dose 4 mg) was 115 ng/mL and the level at 0.75 h (single SC dose 4 mg) was 123 ng/mL. For the same compound, the level at 1 h (single SC dose 4 mg) was 134 ng/mL, the level at 2 h (single SC dose 4 mg) was 82.5 ng/mL and the level at 3 h (single SC dose 4 mg) was 44.7 ng/mL. The level at 4 h (single SC dose 4 mg) was 23.5 ng/mL, the level at 6 h (single SC dose 4 mg) was 8.25 ng/mL and the level at 8 h (single SC dose 4 mg) was 3.09 ng/mL. For the same compound, the AUC(0-inf) (single SC dose 8 mg) was 594 ng·h/mL, the AUC(0-t) (single SC dose 8 mg) was 585 ng·h/mL and the CL/F (single SC dose 8 mg) was 225 mL/min. The Cmax (single SC dose 8 mg) was 244 ng/mL, the Tmax (single SC dose 8 mg) was 0.75 h and the half-life (single SC dose 8 mg) was 1.47 h. The level at 0.08 h (single SC dose 8 mg) was 32.1 ng/mL, the level at 0.17 h (single SC dose 8 mg) was 84 ng/mL and the level at 0.25 h (single SC dose 8 mg) was 118 ng/mL. The level at 0.33 h (single SC dose 8 mg) was 144 ng/mL, the level at 0.5 h (single SC dose 8 mg) was 199 ng/mL and the level at 0.75 h (single SC dose 8 mg) was 240 ng/mL. It also gave a level at 1 h (single SC dose 8 mg) of 226 ng/mL and a level at 2 h (single SC dose 8 mg) of 136 ng/mL.
